Consider one molecule from patent publication US6359130B1, “Bridged indenopyrrolocarbazoles” (Cephalon, Inc., priority 1998, dated 2002).

The structures appear in SMILES notation.

For experiment [1], the target named is T1, baculovirus-expressed human trkA cytoplasmic domain (Homo sapiens, UniProt P04629).
T1 construct: baculovirus-expressed human trka cytoplasmic domain; made in house; host or cells: baculovirus expression system
Description: Inhibition of trkA tyrosine kinase activity (ELISA-based assay). It is filed as biochemical. The settings on record: 40 μM ATP. How it is done:
Selected bridged indenopyrrolocarbazole compounds were tested for their ability to inhibit the kinase activity of baculovirus-expressed human trka cytoplasmic domain using an ELISA-based assay as previously described (Angeles et al., Anal. Biochem. 236: 49-55, 1996). Briefly, the 96-well microtiter plate was coated with substrate solution (recombinant human phospholipase C-γl/glutathione S-transferase fusion protein (Rotin et al., EMBO J., 11: 559-567, 1992). Inhibition studies were performed in 100 μl assay mixtures containing 50 mM Hepes, pH 7.4, 40 μM ATP, 10 mM MnCl2, 0.1% BSA, 2% DMSO, and various concentrations of inhibitor. The reaction was initiated by addition of trkA kinase and allowed to proceed for 15 minutes at 37° C. An antibody to phosphotyrosine (UBI) was then added, followed by a secondary enzyme-conjugated antibody, alkaline phosphatase-labelled goat anti-mouse IgG (Bio-Rad). The activity of the bound enzyme was measured via an amplified detection system (Gibco-BRL). Inhibition data were analyzed using the sigmoidal dose-response (variable slope) equation in GraphPad Prism.
Background: An ELISA detects its analyte on a solid surface through an enzyme-linked reagent.

Experiment [2] has as its target T2, trkA in NIH3T3 cells transfected with trkA (Homo sapiens, UniProt P04629).
T2 construct: expressed in transfected cells; host or cells: NIH3T3 cells
Description: Inhibition of NGF-stimulated trk phosphorylation in a whole cell preparation. The class given is cell-based. As to conditions: NGF 10 ng/ml, percent decrease in trk protein band. How it is done: NIH3T3 cells transfected with trkA were grown in 100 mm dishes. Subconfluent cells were serum-starved by replacing media with serum-free 0.05% BSA-DMEM containing compound (100 nM and 1 μM) or DMSO (added to controls) for one hour at 37° C. NGF (Harlan/Bioproducts for Science) was then added to the cells at a concentration of 10 ng/ml for 5 minutes. Cells were lysed in buffer containing detergent and protease inhibitors. Clarified cell lysates were normalized to protein using BCA method and immunoprecipitated with anti-trk antibody. Polyclonal anti-trk antibody was prepared against a peptide corresponding to the 14 amino acids at the carboxy terminus of trk (Martin-Zanca et al., Mol. Cell. Biol. 9: 24-33, 1989). The immune complexes were collected on Protein A Sepharose beads (Sigma Chem. Co., St. Lois, Mo.), separated by SDS polyacrylamide gel electrophoresis (SDS-PAGE), and transferred to a polyvinylidene difluoride (PVDF) membrane. The membrane was immunoblotted with anti-phosphotyrosine antibody (UBI), followed by incubation with horseradish peroxidase coupled goat anti-mouse IgG (Bio-Rad Laboratories, Hercules, Calif.). Phosphorylated proteins were visualized using ECL (Amersham Lite Science, Inc., Arlington Heights, Ill.). The area of the trk protein band was measured and compared to NGF-stimulated control. The inhibition scoring system used, based on percent decrease in trk protein band, was as follows: 0=no decrease; 1=1-25%; 2=26-49%; 3=50-75%; 4=76-100% Results are shown below in Table 3.

Experiment [3] addresses T3, VEGF receptor (human flk-1, KDR, VEGFR2) kinase domain (Homo sapiens, UniProt P35968).
T3 construct: VEGF receptor (human flk-1, KDR, VEGFR2) kinase domain; made in house; host or cells: baculovirus expression system
The experiment in a line: Inhibition of VEGF receptor kinase activity (ELISA). The class given is biochemical. As to conditions: 40 μM ATP; read-out: VEGFR kinase IC50. The method, then: Bridged indenopyrrolocarbazole compounds were examined for their inhibitory effects on the kinase activity of baculovirus-expressed VEGF receptor (human flk-1, KDR, VEGFR2) kinase domain using the procedure described for the trkA kinase ELISA assay described above. The kinase reaction mixture, consisting of 50 mM Hepes, pH 7.4, 40 μM ATP, 10 mM MnCl2, 0.1% BSA, 2% DMSO, and various concentrations of inhibitor, was transferred to PLC-γ/GST-coated plates. VEGFR kinase was added and the reaction was allowed to proceed for 15 min. at 37° C. Detection of phosphorylated product was accomplished by addition of anti-phosphotyrosine antibody (UBI). A secondary enzyme-conjugated antibody was delivered to capture the antibody-phosphorylated PLC-γ/GST complex. The activity of the bound enzyme was measured via an amplified detection system (Gibco-BRL). Inhibition data were analyzed using the sigmoidal dose-response (variable slope) equation in GraphPad Prism.

In experiment [4] the target is protein kinase C (mixed isozymes of a, b, g). Description: Inhibition of protein kinase C activity (Millipore Multiscreen TCA in-plate assay). The class given is biochemical. The settings on record: read-out: PKC IC50. How it is done:
Protein kinase C activity was assessed using the Millipore Multiscreen TCA “in-plate” assay as described in Pitt, A. M. and Lee, C. (J. Biomol. Screening, 1: 47-51, 1996). Assays were performed in 96-well Multiscreen-DP plates (Millipore). Each […] assay mixture contained 20 mM Hepes, pH 7.4, 10 mM MgCl2, 2.5 mM EGTA, 2.5 mM CaCl2, 80 mg/ml phosphatidyl serine, 3.2 mg/ml diolein, 200 mg/ml histone H-1(Fluka), 5 mM [γ-^32P]ATP, 1.5 ng protein kinase C (UBI; mixed isozymes of a, b, g), 0.1% BSA, 2% DMSO, and test bridged fused pyrrolocarbazole compound. The reaction was allowed to proceed for 10 min at 37° C., then quenched by adding ice cold 50% trichloroacetic acid. The plates were allowed to equilibrate for 30 min at 4° C., then washed with ice cold 25% TCA. Scintillation cocktail was added to the plates, and the radioactivity was determined using Wallac MicroBeta 1450 PLUS scintillation counter. The IC50 values were calculated by fitting the data to the sigmoidal dose-response (variable slope) equation in GraphPad Prism.

Experiment [5] addresses T4, PDGFβ receptor kinase domain (Homo sapiens, UniProt P09619).
T4 construct: baculovirus-expresses PDGFβ receptor kinase domain; made in house; host or cells: baculovirus expression system
Description: Inhibition of PDGF receptor kinase activity (ELISA). The settings on record: 20 μM ATP; read-out: PDGFR IC50. It is filed as biochemical. How it is done: Bridged indenopyrrolocarbazole compounds were examined for their inhibitory effects on the kinase activity of baculovirus-expresses PDGFβ receptor kinase domain using the trkA kinase ELISA described above. Assays were performed in substrate (PLC-γ/GST)-coated 96-well microtiter plates. Each 100-μl reaction mixture contained 50 mM HEPES, pH 7.4, 20 μM ATP, 10 mM MnCl2, 0.1% BSA, 2% DMSO, and various concentrations of inhibitor. The reaction was initiated by addition of prephosphorylated recombinant human enzyme (10 ng/ml PDGFRβ) and allowed to proceed for 15 minutes at 37° C. The prephosphorylated enzyme was prepared prior to use by incubation of the kinase in buffer containing 20 μM ATP and 10 mM MnCl2 for 1 hour at 4° C. Detection of phosphorylated product was done by adding horseradish peroxidase (HRP)-conjugated anti-phosphotyrosine antibody (UBI). The HRP substrate solution containing 3, 3′-5, 5′-tetramethylbenzidine and hydrogen peroxide was later added and the plates were incubated for 10 minutes at room temperature. The reaction was quenched with acid and the resulting absorbance was read at 450 nm using a Microplate Bio-kinetics Reader (Bio-Tek Instrument EL 312e). Inhibition data were analyzed using the sigmoidal dose-response (variable slope) equation in GraphPad Prism.

In experiment [6] the test system is Spinal Cord ChAT. Description: Enhancement of spinal cord ChAT activity in dissociated rat embryonic spinal cord culture. The class given is cell-based. How it is done:
For example, In these assays, a compound was directly added to a dissociated spinal cord culture. Compounds which increased ChAT activity at least 120% of the control activity were considered active.
Methods: Fetal rat spinal cord cells were dissociated, and experiments were performed as described (Smith et al., J. Cell Biology 101:1608-1621(1985); Glicksman et al., J. Neurochem. 61:210-221(1993) ). Dissociated cells were prepared from spinal cords dissected from rats (embryonic day 14-15) by standard trypsin dissociation techniques (Smith et al., supra.). Cells were plated at 6×10^5 cells/cm^2 on poly-1-ornithine coated plastic tissue culture wells in serum-free N2 medium supplemented with 0.05% bovine serum albumin (BSA) (Bottenstein et al., PNAS USA 76:514-517 (1979) ). Cultures were incubated at 37° C. in a humidified atmosphere of 5% CO2/95% air for 48 hours. ChAT activity was measured after 2 days in vitro using a modification of the Fonnum procedure (Fonnum, J. Neurochem. 24:407-409 (1975) ) according to McManaman et al. and Glicksman et al. (McManaman et al., Developmental Biology 125:311-320(1988); Glicksman et al., J. Neurochem., supra.).

T2 sequence (P04629 33-796): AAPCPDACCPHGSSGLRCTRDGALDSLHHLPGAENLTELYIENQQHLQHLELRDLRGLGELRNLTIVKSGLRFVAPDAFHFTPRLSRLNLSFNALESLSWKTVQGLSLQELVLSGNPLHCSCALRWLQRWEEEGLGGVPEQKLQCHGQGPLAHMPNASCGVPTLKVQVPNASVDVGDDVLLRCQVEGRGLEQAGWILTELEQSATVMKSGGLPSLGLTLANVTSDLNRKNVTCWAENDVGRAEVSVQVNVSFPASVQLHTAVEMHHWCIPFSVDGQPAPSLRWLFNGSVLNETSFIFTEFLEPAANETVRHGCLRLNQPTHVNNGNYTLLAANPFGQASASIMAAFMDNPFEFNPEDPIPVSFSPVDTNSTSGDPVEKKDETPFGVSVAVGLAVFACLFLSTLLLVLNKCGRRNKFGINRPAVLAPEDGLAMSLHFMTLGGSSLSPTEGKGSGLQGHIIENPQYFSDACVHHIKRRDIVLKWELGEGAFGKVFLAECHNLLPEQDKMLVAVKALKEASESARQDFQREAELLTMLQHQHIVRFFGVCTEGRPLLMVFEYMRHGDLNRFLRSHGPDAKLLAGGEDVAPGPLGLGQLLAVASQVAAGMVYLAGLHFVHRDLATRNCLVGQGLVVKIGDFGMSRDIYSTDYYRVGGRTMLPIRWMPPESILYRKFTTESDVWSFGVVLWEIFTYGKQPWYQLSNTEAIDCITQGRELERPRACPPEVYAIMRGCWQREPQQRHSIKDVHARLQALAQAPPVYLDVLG
T4 sequence (P09619 600-962 limits assumed): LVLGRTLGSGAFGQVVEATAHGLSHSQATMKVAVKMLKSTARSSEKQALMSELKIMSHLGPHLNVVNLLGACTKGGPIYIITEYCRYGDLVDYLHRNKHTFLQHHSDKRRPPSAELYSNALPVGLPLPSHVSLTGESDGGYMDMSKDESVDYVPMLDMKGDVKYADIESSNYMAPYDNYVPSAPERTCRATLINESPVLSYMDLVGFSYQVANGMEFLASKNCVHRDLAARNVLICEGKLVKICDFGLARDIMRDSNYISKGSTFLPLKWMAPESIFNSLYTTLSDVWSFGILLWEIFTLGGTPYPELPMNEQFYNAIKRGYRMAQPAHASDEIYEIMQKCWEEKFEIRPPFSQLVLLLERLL
T3 sequence (P35968 834-1162 limits assumed): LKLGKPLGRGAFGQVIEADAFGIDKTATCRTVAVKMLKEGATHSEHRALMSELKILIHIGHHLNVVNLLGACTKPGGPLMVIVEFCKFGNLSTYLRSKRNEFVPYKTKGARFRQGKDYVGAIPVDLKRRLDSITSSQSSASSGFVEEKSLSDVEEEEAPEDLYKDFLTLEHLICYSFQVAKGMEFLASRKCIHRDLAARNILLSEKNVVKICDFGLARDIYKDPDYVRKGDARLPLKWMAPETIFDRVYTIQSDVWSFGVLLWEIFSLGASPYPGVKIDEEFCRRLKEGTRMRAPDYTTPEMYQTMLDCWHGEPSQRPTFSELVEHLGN
T1 sequence (P04629 440-796 limits assumed): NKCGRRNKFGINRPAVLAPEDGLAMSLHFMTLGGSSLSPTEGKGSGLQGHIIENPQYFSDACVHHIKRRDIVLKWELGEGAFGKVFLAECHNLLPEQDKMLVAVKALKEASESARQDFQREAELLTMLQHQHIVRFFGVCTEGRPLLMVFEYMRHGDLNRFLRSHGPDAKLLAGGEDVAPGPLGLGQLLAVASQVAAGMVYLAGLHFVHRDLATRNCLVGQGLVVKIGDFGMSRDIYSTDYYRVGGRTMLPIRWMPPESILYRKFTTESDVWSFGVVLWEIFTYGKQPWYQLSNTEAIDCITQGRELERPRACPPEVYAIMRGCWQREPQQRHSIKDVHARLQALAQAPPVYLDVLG

For the molecule `O=C1NCc2c1c1c3c4c2c2ccccc2n4C2CCC(O2)C3c2ccccc2-1` (centres unmarked) [II-1], the concentration for half-maximal inhibition (IC50) in experiment [1] was found to be 13 nM; in experiment [3], 30 nM; in experiment [4], 1300 nM; in experiment [5], 1380 nM. Further, the “Inhibition Score at 100 nM” value in experiment [2] (100 nM compound) is listed as 3 (3=50-75%). Also, the “Inhibition Score at 1000 nM” value in experiment [2] (1000 nM compound) is listed as 4 (4=76-100%). Besides, the “Spinal Cord ChAT Activity at 30 nM” value in experiment [6] (30 nM, active if at least 120% of control) came to 114 % control. In addition, the “Spinal Cord ChAT Maximal Activity” value in experiment [6] (concentration of maximal activity printed in cell (300 nM)) is 139 @ 300 nM % control.

A word on the IC50: it is the concentration at which inhibition is half-maximal.
